≈ marks a conversion by molar mass, not a printed value. Read-outs that look alike come from different tables or passages of the source.

21 compounds from patent publication US20260272960A1, “[…] COMPOUNDS, PREPARATION METHOD AND USE THEREOF” (HC SYNTHETIC PHARMACEUTICAL CO., LTD., priority 2022, published 2026) can be followed below.

The nature of data set [1]: Solubility test in water, methanol and isopropanol. Type of data set: physicochemical.
Description: The solubility in water, methanol, and isopropanol of the compounds of the present disclosure and the comparative compounds were measured separately.
The nature of data set [2]: Accelerated stability test. Type of data set: physicochemical. The settings on record: 40° C.±2° C., relative humidity 75%+5%. Here is the method:
The compound of the present disclosure was placed at a temperature of 40° C.±2° C. and a relative humidity of 75%+5% for 6 months, and samples were taken to determine for the descriptions, related substances, and contents.

Data set [3] relates to histamine-induced asthma in guinea pigs. Briefly: Antiasthmatic effect on histamine-induced asthma in guinea pigs (latency period). Type of data set: in vivo, guinea pig. The settings on record: 1 mg/kg oral gavage, sixty minutes after administration; no asthma within 8 minutes counted as 8 minutes; X ± s, n = 5. Here is the method: The guinea pigs were placed in a polymethyl methacrylate bell jar and a histamine hydrochloride solution was sprayed ultrasonically (0.8 mg/mL) for 40 seconds. The time point at which the guinea pigs developed asthma was recorded. The time of convulsion and fall was taken as the latency period. Guinea pigs with a latency period exceeding 180 seconds were not selected. […] The guinea pigs were administered by oral gavage at a dose of 2 mL/kg·bw. Sixty minutes after the administration, the guinea pigs were placed in bell jars, and histamine hydrochloride solution was sprayed under the same conditions as in the previous selection. The latency period for the onset of asthma was recorded. […] The results were processed statistically.

Data set [4] has as its system isolated ileal smooth muscle of guinea pigs. Briefly: Effect on muscle tone of isolated ileal smooth muscle of guinea pigs (no histamine added). Details: species or system guinea pig. The settings on record: 5 minutes after adding the drug, X ± s, n = 8. Here is the method: The guinea pig was knocked unconscious with a wooden stick, and the abdomen was immediately dissected to separate the ileum about 15 cm in length. The contents of the intestinal segment were flushed with Tyrode's solution and placed in Tyrode's solution at a constant temperature of 37° C. for later use, and oxygen was supplied simultaneously. The experimental intestinal tract (1 cm in length) was cut and placed into 20 ml of Tyrode's solution at a constant temperature of 37° C. with a continuous oxygen supply. One end of the intestine was fixed on the ventilation hook and the other end was connected to the muscle tone transducer and led to the computer interface. The muscle tone value of the ileal smooth muscle was recorded with a BL system. The experiment was carried out after the intestinal segment contraction became stable. […] The operation was repeated 8 times. The antispasmodic percentage was calculated according to the following formula. [formula]

Where [5] appears, read: isopropanol, organic solvent or mixture, isopropanol, read-out: Solubility, Isopropanol.
The mark [6] stands for this setting: methanol, organic solvent or mixture, methanol, read-out: Solubility, Methanol.
Setting [7] is: water, read-out: Solubility, Water.

Turning to `O=C1Cc2ccccc2C(=C2CCN(CCCCCOCOP(=O)(O)O)CC2)c2ccsc21` [Compound III-9], the solubility in data set [1] (setting [5]) stood at 24 mg/mL (≈ 48.8 mM); in data set [1] (setting [6]) it was 38 mg/mL (≈ 77.3 mM).
In the case of `O=C1Cc2ccccc2C(=C2CCN(CCCCOP(=O)(O)O)CC2)c2ccsc21` [Compound III-4], the solubility turned out to be 24 mg/mL (≈ 53.6 mM) in data set [1] (setting [5]) and 35 mg/mL (≈ 78.2 mM) in data set [1] (setting [6]).
For `O=C1Cc2ccccc2C(=C2CCN(COP(=O)(O)O)CC2)c2ccsc21` [Compound III-1], in that order: 24 mg/mL (≈ 59.2 mM) and 35 mg/mL (≈ 86.3 mM).
With `O=C1Cc2ccccc2C(=C2CCN(CCCCOP(=O)([O-])[O-])CC2)c2ccsc21.[Na+].[Na+]` [Compound IV-4], the solubility in data set [1] (setting [5]) came to 1 mg/mL; in data set [1] (setting [6]) it was 35 mg/mL; in data set [1] (setting [7]), 476 mg/mL. The Content is 99.7% in data set [2] (Month 1) and 99.6% in data set [2] (Month 3).
Compound `O=C1Cc2ccccc2C(=C2CCN(CCOCOP(=O)(O)O)CC2)c2ccsc21` [Compound IV-6] came in with a Content in data set [2] (Month 3) of 99.6%.
As for `Cc1cncc(CN2CCC(=C3c4ccccc4CC(=O)c4sccc43)CC2)c1` [Rupatifen, rupatifen, reference compound], the solubility amounted to 20 mg/mL (≈ 49.9 mM) in data set [1] (setting [5]) and 30 mg/mL (≈ 74.9 mM) in data set [1] (setting [6]).
For `O=C1Cc2ccccc2C(=C2CCN(CCOP(=O)(O)O)CC2)c2ccsc21` [Compound III-2], the solubility in data set [1] (isopropanol, organic solvent or mixture, read-out: Solubility, Isopropanol) was 24 mg/mL (≈ 57.2 mM).
As for `O=C1Cc2ccccc2C(=C2CCN(CCCCCOCOP(=O)([O-])[O-])CC2)c2ccsc21.[Na+].[Na+]` [Compound IV-9], the solubility in data set [1] (setting [5]) amounted to 2 mg/mL; in data set [1] (setting [6]), 35 mg/mL; in data set [1] (setting [7]), 473 mg/mL.
In the case of `OCCCCN1CCC(=C2c3ccc(Cl)cc3CCc3cccnc32)CC1` [Hydroxybutyl desloratadine, hydroxybutyl desloratadine, reference compound], the solubility is 28 mg/mL (≈ 73.1 mM) in data set [1] (setting [5]) and 22 mg/mL (≈ 57.5 mM) in data set [1] (setting [6]).
In the case of `OCCCN1CCC(=C2c3ccc(Cl)cc3CCc3cccnc32)CC1` [Hydroxypropyl desloratadine, hydroxypropyl desloratadine, reference compound], the values for the solubility in data set [1] (setting [5]) and in data set [1] (setting [6]) were 26 mg/mL (≈ 70.5 mM) and 24 mg/mL (≈ 65.1 mM), respectively.
For `OCCCCCCN1CCC(=C2c3ccc(Cl)cc3CCc3cccnc32)CC1` [Hydroxyhexyl desloratadine, hydroxyhexyl desloratadine, reference compound], in that order: 32 mg/mL (≈ 77.9 mM) and 15 mg/mL (≈ 36.5 mM).
The like results for `OCCN1CCC(=C2c3ccc(Cl)cc3CCc3cccnc32)CC1` [Hydroxyethyl desloratadine, hydroxyethyl desloratadine, reference compound] were, in that order, 21 mg/mL (≈ 59.2 mM) and 27 mg/mL (≈ 76.1 mM).
For `O=C1Cc2ccccc2C(=C2CCN(CCCOP(=O)(O)O)CC2)c2ccsc21` [Compound IV-3], the results for the solubility in data set [1] (setting [6]) and in data set [1] (setting [7]) were 38 mg/mL (≈ 87.7 mM) and 404 mg/mL (≈ 932 mM), respectively.
Regarding `O=C1Cc2ccccc2C(=C2CCN(CCOP(=O)([O-])[O-])CC2)c2ccsc21.[K+].[K+]` [Compound IV-2], the Content turned out to be 99.7% in data set [2] (Month 1), 99.7% in data set [2] (Month 2) and 99.6% in data set [2] (Month 6).
Take `O=C1Cc2ccccc2C(=C2CCN(CCCCOCOP(=O)([O-])[O-])CC2)c2ccsc21.[Na+].[Na+]` [Compound IV-8]: the Content in data set [2] (Month 1) came to 99.7%; in data set [2] (Month 2), 99.7%; in data set [2] (Month 6) it was 99.6%.
As to `O=C1Cc2ccccc2C(=C2CCN(COP(=O)([O-])[O-])CC2)c2ccsc21.[Na+].[Na+]` [Compound IV-1], the values for the solubility in data set [1] (setting [5]), in data set [1] (setting [6]) and in data set [1] (setting [7]) were 1 mg/mL, 35 mg/mL and 488 mg/mL, respectively. In addition, the Content is recorded as 99.7% in data set [2] (Month 1) and 99.6% in data set [2] (Month 3).
As to `O=C1Cc2ccccc2C(=C2CCN(CCCOCOP(=O)(O)O)CC2)c2ccsc21` [Compound III-7], the values for the solubility in data set [1] (setting [5]) and in data set [1] (setting [6]) were 24 mg/mL (≈ 51.8 mM) and 38 mg/mL (≈ 82 mM), respectively.
With `OCCCCCN1CCC(=C2c3ccc(Cl)cc3CCc3cccnc32)CC1` [Hydroxypentyl desloratadine, hydroxypentyl desloratadine, reference compound], the solubility in data set [1] (setting [5]) is 29 mg/mL (≈ 73.1 mM); in data set [1] (setting [6]) it was 19 mg/mL (≈ 47.9 mM).
For `O=C1Cc2ccccc2C(=C2CCN(CCCOP(=O)(O)O)CC2)c2ccsc21` [Compound III-3], in data set [1] (setting [6]), the solubility turned out to be 35 mg/mL (≈ 80.7 mM).
As for `O=C1Cc2ccccc2C(=C2CCN(CCCCCOP(=O)([O-])[O-])CC2)c2ccsc21.[Na+].[Na+]` [Compound IV-5], the solubility in data set [1] (setting [5]) amounted to 1 mg/mL; in data set [1] (setting [7]), 478 mg/mL.
Consider `CN1CCC(=C2c3ccccc3CC(=O)c3sccc32)CC1` [Ketotifen, ketotifen], for which the “Post-administration latency period” value in data set [3] came to 263.11 ± 54.90 s. Besides, the solubility is 20 mg/mL (≈ 64.6 mM) in data set [1] (setting [5]) and 30 mg/mL (≈ 97 mM) in data set [1] (setting [6]). For the same compound, in data set [4], the “Smooth muscle tone (g) After administration” value came out at 1.30 ± 0.30 g. The “Antispasmodic percentage (%)” value in data set [4] (no histamine) amounted to 23.53 ± 10.10%.
